Laboratory results taken from publication PMC4357467, “A Mouse Model of L-2-Hydroxyglutaric Aciduria, a Disorder of Metabolite Repair” (PLoS ONE, 2015).
pKi: −log10 of the molar value.

Columns and labels:
[1] = target: T1, Lysine-α-ketoglutarate reductase (bifunctional lysine-α-ketoglutarate reductase/saccharopine dehydrogenase) (Mus musculus, UniProt Q99K67); test: spectrophotometric enzyme assay (NADPH), partially purified native liver enzyme; format: biochemical; conditions: 25 mM Hepes pH 8.0, 30°C, 0.15 mM NADPH, 1 mM dithiothreitol, 10 mM lysine, 2 mM α-ketoglutarate
T1 construct: gene Aass; native bifunctional enzyme, partially purified from liver (15 000 x g supernatant, Blue Trisacryl column)
T1 sequence (Q99K67 28-926): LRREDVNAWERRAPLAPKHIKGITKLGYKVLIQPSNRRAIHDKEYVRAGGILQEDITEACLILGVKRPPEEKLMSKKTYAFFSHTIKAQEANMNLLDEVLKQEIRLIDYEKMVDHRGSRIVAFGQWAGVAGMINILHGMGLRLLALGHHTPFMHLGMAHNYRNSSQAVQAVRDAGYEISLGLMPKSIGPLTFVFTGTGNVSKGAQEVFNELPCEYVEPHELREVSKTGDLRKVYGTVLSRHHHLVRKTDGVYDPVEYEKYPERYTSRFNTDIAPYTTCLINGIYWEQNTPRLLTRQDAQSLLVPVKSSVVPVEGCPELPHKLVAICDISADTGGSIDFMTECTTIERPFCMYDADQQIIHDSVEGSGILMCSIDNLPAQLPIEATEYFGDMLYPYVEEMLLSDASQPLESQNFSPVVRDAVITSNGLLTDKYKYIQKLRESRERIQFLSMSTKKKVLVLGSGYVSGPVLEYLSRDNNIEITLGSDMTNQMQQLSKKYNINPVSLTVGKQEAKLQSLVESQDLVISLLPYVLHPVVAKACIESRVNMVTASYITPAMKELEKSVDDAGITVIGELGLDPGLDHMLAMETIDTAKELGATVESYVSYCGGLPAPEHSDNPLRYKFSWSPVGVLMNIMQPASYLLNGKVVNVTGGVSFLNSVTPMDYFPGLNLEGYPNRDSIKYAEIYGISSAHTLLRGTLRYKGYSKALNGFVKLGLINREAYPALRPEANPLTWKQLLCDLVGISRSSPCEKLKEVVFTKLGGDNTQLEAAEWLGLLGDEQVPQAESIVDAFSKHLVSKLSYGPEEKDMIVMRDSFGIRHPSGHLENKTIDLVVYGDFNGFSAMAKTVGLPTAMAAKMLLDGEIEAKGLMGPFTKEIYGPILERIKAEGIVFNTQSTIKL

[2] = target: T1, Lysine-α-ketoglutarate reductase (bifunctional lysine-α-ketoglutarate reductase/saccharopine dehydrogenase); test: as above; format: biochemical

| pKi [2] | SMILES | spectrophotometric enzyme assay (NADPH), partially purified native liver enzyme [1] |
| --- | --- | --- |
|  | O=C(O)CC[C@@H](O)C(=O)O [D-2-hydroxyglutarate] | almost no inhibition was observed with D-2-hydroxyglutarate |
| 3.15 | O=C(O)CC[C@H](O)C(=O)O [L-2-hydroxyglutarate] |  |
